Results taken from patent publication US6384186B2 (priority 1995, dated 2002).
Square brackets hold non-standard residues; d marks the D form. Peptide text beside a SMILES is read from it. NMeI = CC[CH](C)[CH](NC)C(=O)O; NMeV = CN[CH](C(=O)O)C(C)C; Sar = CNCC(=O)O

`CCC(C)C1NC(=O)C(C(C)C)N(C)C(=O)C(Cc2c[nH]c3ccccc23)NC(=O)CN(C)C(=O)C(C(C)CC)N(C)C(=O)C(C(C)C)NC(=O)CN(C)C(=O)C(C(C)CC)N(C)C(=O)C(C(C)C)N(C)C(=O)CN(C)C(=O)C(C(C)C)N(C)C(=O)C(C(C)C)N(C)C1=O` (centres unmarked) [omphalotin] (cyclo([Sar][NMeV][NMeI][Sar]V[NMeI][Sar]W[NMeV]I[NMeV][NMeV]); configuration not given here) showed an Efficacy of omphalotin (Pyricularia oryzae) of 70% and an Efficacy of omphalotin (Fusarium graminearum) of 23%.
